Experimental data reported in US12692232B2, “Indole carboxamide compound, preparation therefor and use thereof” (NANJING RUISHUNING MEDICAL TECHNOLOGY CO., LTD., priority 2021, dated 2026).

How the values were obtained:
Assay type in all cases: in vivo
[1] = tested on: H22 liver subcutaneous transplanted tumor; test: Mouse model of H22 liver subcutaneous transplanted tumor; settings: 20 mg/kg injected intraperitoneally 14 days (positive drug)
Description: (§1) The method was as follows:
Experimental procedure: H22 hepatoma cell suspension was adjusted to 1×10^7/mL after dilution and counting with normal saline, and 0.2 mL per mouse was inoculated on the back of the mice. After 24 hours, the mice were weighed and administered drug at a dose of 0.1 mL/10 g once a day, wherein the mice in the solvent control group and the treatment groups were administered 0.9% sodium chloride solution and the compound of the present invention, respectively, for 14 days, and the mice in the CTX group were injected intraperitoneally for 14 days. The mice were weighed after 14 days. The animals were executed and the tumor blocks were removed and weighed separately. The tumor inhibition rate was calculated according to the following formula: tumor inhibition rate (%)=(1−average tumor weight in a treatment group/average tumor weight in the solvent control group)×100%.

[2] = tested on: mouse model of focal segmental glomerulosclerosis; test: Mouse model of focal segmental glomerulosclerosis (adriamycin)
Description: as §1
Each mouse in the model group, the treatment groups and the positive control group was injected once into the tail vein with adriamycin at a dose of 8 mg/kg, and each mouse in the control group was injected once into the tail vein with saline at the same dose. The mice in the control group and model group were administered equal amount of saline by gavage for 6 weeks, and the mice in other group were administered corresponding compound in doses by gavage at a fixed time each day for 6 weeks after modelling with adriamycin. The body weights were recorded weekly and urine samples were collected.
Collection of urine samples: animals were placed in separate metabolic cages by group on days 0, 7, 14, 21, 28, 35, and 42 after modelling, with free access to water and no access to food, and urine samples were collected from each group of mice.
Determination of urine protein level using Coomassie brilliant blue (CBB) method: urine protein level was determined by urine protein quantitative test kit (Nanjing Jiancheng Bioengineering Institute). CBB working solution was prepared according to the kit instructions. 0.05 mL of each urine sample was mixed with 3 mL of CBB working solution, the mixture was allowed to stand for 5 min, and the absorbance value of each sample was determined at 595 nm. The urine protein levels samples of each group was calculated according to the protein standardization formula: urine protein level (mg/L)=(measured OD−blank OD)/(standard OD−blank OD)×563 mg/L.
Collection of serum samples: orbital blood from each mouse was collected in an EP tube, placed at 37° C. for 20 minutes, and centrifuged to obtain an upper layer of serum.
Collection of plasma samples: orbital blood from each mouse was collected in an anticoagulation tube, mixed well and stored at 4° C. for later use.
Determination of urea nitrogen level in plasma by diacetyl monoxime method: urea nitrogen level was determined by using blood urea nitrogen (BUN) test kit (Nanjing Jiancheng Bioengineering Institute). According to the kit instructions, 0.05 mL of anticoagulated plasma sample was mixed with 1 mL of oxime solution and 1 mL of acid working solution, and the mixtures were placed in a boiling water bath for 15 minutes. A UV-visible spectrophotometer was used to determine the absorbance values of each tube at a wavelength of 520 nm. Urea nitrogen levels in plasma samples of each group were calculated according to the formula: Urea nitrogen level (mmol/L)=(measured OD value−blank OD value)/(standard OD value−blank OD value)×10 mmol/L.
Collection of kidney tissue samples: kidneys were taken from mice after anesthesia, cut horizontally, and the upper part of the kidneys was embedded in OCT embedding box, sliced with frozen slicer and stored at −20° C.
H&E staining was used to assess pathological glomerular changes, and the procedure was as follows: frozen sections were fixed with 95% ethanol for 2 minutes, hydrated with distilled water, stained with hematoxylin for 3 minutes, washed with distilled water for 3 minutes, differentiated using 1% hydrochloric acid in ethanol for 10 seconds, washed with distilled water for 30 seconds, returned to blue in running water for 5 minutes, washed in distilled water for 30 seconds, stained with eosin for 30 seconds, washed with 75% and 85% ethanol for 20 seconds each, dehydrated rapidly with 95% ethanol for 1 minute, dehydrated with anhydrous ethanol, cleared to transparency in xylene (1 minute×3), and finally sealed with neutral balsam and photographed with a biomicroscope.

[3] = tested on: mouse model of renal fibrosis (UUO); test: Mouse model of renal fibrosis (unilateral ureteral obstruction, UUO)
Description: The therapeutic effect of the compounds of the present invention (as exemplified by Compound 1-1 obtained in Example 1) on renal fibrosis was determined using a mouse model of renal fibrosis. The method was as follows:
Grouping of animals: male C57BL/6J mice aged 8 weeks were given adaptive feeding for 3 days and grouped into a sham operation group, a sham operation-treatment group, a Unilateral ureteral obstruction (UUO) model group, a low-dose (10 mg/kg) treatment group, a medium-dose (25 mg/kg) treatment group, a high-dose (50 mg/kg) treatment group, a medium-dose (25 mg/kg) treatment group of indole analogue 3-[(1-methyl-1H-indole-2-carbonyl)amino]propionic acid disclosed in CN2019107285315, and a positive control group of losartan (50 mg/kg), with 10 animals in each group. Mice in the model and the treatment groups were anesthetized by intraperitoneal injection of 0.5% sodium pentobarbital at a dose of 0.1 mL/10 g. The mice were fixed on the operating table and cut open in layers from the right side of the mid-abdomen to locate the left kidney, and the ends of the ureter were ligated, while the ureter was cut off between the two ligations; the sham operation group was operated as described above and the ligations were not performed. Post-operative organs were repositioned, sutured, and sterilized with iodophor after suturing was completed. Immediately after operation, the drug was administered by gavage once daily for 14 days. Urine sample collection: animals were placed in separate metabolic cages by group on days 0, 5, 10 and 14 after modelling, without food or water, and urine samples were collected from each group of mice.
The protein levels in urine were determined using Coomassie brilliant blue (CBB) method by using urine protein quantitative test kit (Nanjing Jiancheng Bioengineering Institute). CBB working solution was prepared according to the kit instructions. 0.05 mL of each urine sample was mixed with 3 mL of CBB working solution, the mixture was left to stand for 5 min, and the absorbance value of each sample was determined at 595 nm. The protein levels in each group of urine samples were calculated according to the protein standardization formula: urine protein levels (mg/L)=(measured OD−blank OD)/(standard OD−blank OD)×563 mg/L.
Collection of serum sample: orbital blood from each mouse was collected in an EP tube, placed at 37° C. for 20 minutes, and centrifuged to obtain the upper layer of serum.
Collection of plasma sample: orbital blood from each mouse was collected in an anticoagulation tube, mixed well and stored at 4° C. for later use.
Determination of creatinine levels in urine and serum by the picric acid colorimetric method: creatinine levels in urine and serum were determined by using the creatinine test kit (Nanjing Jiancheng Bioengineering Institute). According to the kit instructions, 1.5 mL of urine sample or serum sample and 0.5 mL of picric acid solution, 0.5 mL of 0.5 mol/L sodium hydroxide solution were mixed, heated in water bath at 37° C. for 10 minutes. The absorbance value of each sample was determined using a UV spectrophotometer at a wavelength of 510 nm. Creatinine levels in samples of each group were calculated according to the formula: creatinine level (μmol/L) in serum or urine=(measured OD value−blank OD value)/(standard OD value−blank OD value)×50 μmol/L×(dilution ratio 201).
Determination of urea nitrogen level in plasma by diacetyl monoxime method: urea nitrogen level was determined was determined by using blood urea nitrogen (BUN) test kit (Nanjing Jiancheng Bioengineering Institute). According to the kit instructions, 0.05 mL of anticoagulated plasma samples were mixed with 1 mL of oxime solution and 1 mL of acid working solution, and the mixtures were placed in a boiling water bath for 15 min. A UV-visible spectrophotometer was used to determine the absorbance values of each tube at a wavelength of 520 nm. […]

[4] = tested on: rat model of pulmonary hypertension induced by monocrotaline; test: Rat model of pulmonary hypertension induced by monocrotaline
Description: The preventive effect of the compounds of the present invention (as exemplified by compound 1-1 obtained in Example 1) on pulmonary hypertension was determined using a rat model of pulmonary hypertension induced by monocrotaline. The method was as follows:
Grouping of animals: 70 male SD rats with weigh of 200±20 g were randomly divided into 7 groups, i.e., a normal control group, a monocrotaline (MCT) model group, a treatment group of low-dose compound 1-1 (10 mg/kg) (MCT), a treatment group of medium-dose compound 1-1 (25 mg/kg) (MCT), a treatment group of high-dose compound 1-1 (50 mg/kg) (MCT), a treatment group of medium-dose indole analogue 3-[(1-methyl-1H-indole-2-carbonyl)amino]propionic acid (25 mg/kg) disclosed in CN2019107285315 (MCT), and a sildenafil group (150 mg/kg) (MCT), with 10 rats in each group.
Experimental procedure: MCT was prepared as a 2% solution with a mixture of ethanol and saline (2:8) and the solution was injected intraperitoneally once at a dose of 60 mg/kg body weight in all groups except the normal control group. Each rat in the normal control group was injected intraperitoneally once with a solution prepared from ethanol and saline in a volume ratio of 2:8. Compound 1-1 obtained in Example 1, the indole analogue 3-[(1-methyl-1H-indole-2-carbonyl)amino]propionic acid disclosed in CN2019107285315, or the positive drug sildenafil was administered by gavage to the mice in the treatment groups on the day of modelling, and saline was administered by gavage to the mice in the normal control group and the MCT model group. The drugs were administered by gavage once a day for 28 days until 12 hours before test.
Determination of hemodynamic indexes: a polyethylene plastic microcatheter filled with heparin solution (0.9% sodium chloride solution+10 U/mL heparin) was inserted into the right external jugular vein of a rat, and the other end of the microcatheter was connected to a miniature pressure transducer to monitor the pressure changes. […] After 30 minutes of stabilization, the POWERLAB multi-channel intelligent physiological signal acquisition and recording system was applied to acquire, record and analyze the indexes.
Determination of the index of right ventricular (RV) hypertrophy: at the end of the experiment, the heart was removed by dissection of the thorax and the atrial tissue was cut off. The right ventricle (RV), left ventricle (LV), and interventricular septum (S) were isolated along the edge of the interventricular septum, and the RV, LV, and S were weighed after absorbing water with filter paper and the ratio RV/(LV+S) was used to reflect the degree of RV hypertrophy.
Pathological examination of pulmonary vessels: tissue blocks were taken from the same site in the lower lobe of the right lung and fixed in 10% neutral formaldehyde (pH=7.4) for 2 days. Routine paraffin embedding, serial sections, H&E staining and light microscopy were performed to observe morphological changes in small pulmonary arteries.
Effect on inflammatory factors in lung tissue: Lung tissues were collected from each group of rats, homogenates of lung tissue were prepared and centrifuged and supernatants were collected. The protein level in the supernatant was determined by Coomassie brilliant blue method, and tumor necrosis factor-α (TNF-α) in rats was determined by an ELISA kit (Beijing 4A Biotech Co., Ltd.). […]

[5] = gavage once daily 14 days, not statistically different (P>0.05)
[6] = MCT + sildenafil (150 mg/kg) gavage 28 days

O=P1(N(CCCl)CCCl)NCCCO1 (stereo not drawn) [CTX, cyclophosphamide, reference compound]
tumor inhibition rate [1]: 60.3%

CCCCC1=NC2(CCCC2)C(=O)N1Cc1ccc(-c2ccccc2-c2nnn[nH]2)cc1 [irbesartan, reference compound]
serum urea nitrogen level reduced compared with the model group ([2]; 50 mg/kg gavage, 6 weeks): 9.0%
serum urea nitrogen level ([2]; 50 mg/kg gavage, 6 weeks, model 16.08±0.23): 14.63 ± 0.19 mmol/L
urine protein level ([2]; 50 mg/kg gavage, 6 weeks, model 547.0±106.3): 382 ± 80.8 mg/L
glomerular lesions, renal tissue pathology (H&E, PAS, Sirius red stain) ([2]; FIG. 1, control compound 25 mg/kg, irbesartan 50 mg/kg): shows the same effect
body weight compared with the FSGS group ([2]; gavage daily 6 weeks, compound 1-1 10, 25, 50 mg/kg, control compound 25 mg/kg, irbesartan 50 mg/kg): increased body weights

CCCCc1nc(Cl)c(CO)n1Cc1ccc(-c2ccccc2-c2nn[nH]n2)cc1 [losartan, reference compound]
creatinine level reduced compared with the model group ([3]; 50 mg/kg gavage 14 days): 19.0%
urea nitrogen level reduced compared with the model group ([3]; 50 mg/kg gavage 14 days): 29.7%
urine protein level reduced compared with the model group ([3]; 50 mg/kg gavage 14 days): 46.6%
urea nitrogen level ([3]; 50 mg/kg gavage 14 days, model 17.56±0.48): 12.35 ± 0.37 mmol/L
serum creatinine level ([3]; 50 mg/kg gavage 14 days, model 32.48±0.87): 26.32 ± 1.12 µmol/L
urine protein level ([3]; 50 mg/kg gavage 14 days, model 888.5±264.8): 475 ± 112 mg/L
extent of renal fibrosis, pathological staining (H&E, Masson, Sirius red) ([3]; FIG. 2, control compound 25 mg/kg, losartan 50 mg/kg): shows the same effect
body weight compared with the UUO model group [3, 5]: slight increase in body weight
kidney weight compared with the UUO model group [3, 5]: slight decrease in kidney weight

CCCc1nn(C)c2c(=O)[nH]c(-c3cc(S(=O)(=O)N4CCN(C)CC4)ccc3OCC)nc12 [sildenafil, reference compound]
RV/(LV + S) [4, 6]: 0.32 ± 0.02
TNF-α in lung tissue [4, 6]: 0.600 ± 06 g/g protein
mPAP ([4]; MCT + sildenafil (150 mg/kg) gavage once a day 28 days): 23.6 ± 3.4 mmHg
